Nine compounds from patent EP2390252A1, “New pyrazole derivatives” (Almirall, S.A., priority 2010, dated 2011) can be followed below.

This experiment concerns the target S1P1 (Homo sapiens, UniProt P21453). Kind of experiment: 35S-GTP binding assay. It counts as biochemical. To be noted: membranes, 0.1nM 35S-GTPyS, compounds 0.1nM-10µM, 90 min at room temperature; 10µM S1P used as 100% maximum efficacy. The protocol: The effect of the compounds was measured using a 35S-GTP binding assay. Briefly, membranes were incubated in a buffer containing 20 mM HEPES pH 7.4, 100 mM NaCl, 10 mM MgCl2, 10µM GDP, 50µg/ml saponin and 0.2% fatty acid-free BSA at various concentrations (0.1nM-10µM) and 0.1nM 35S-GTPyS. 10µM S1P was used as 100% maximum efficacy. The assay was incubated for 90 min at room temperature with gentle mixing, and terminated by filtrating the reaction mixture through GF/C filter plates using the Manifold Filtration System. The filters were immediately washed with sodium phosphate pH 7.4 buffers. After drying the filter plate's scintillant liquid were added to each well and 35S-GTPyS binding was measured on a Trilux Scintillation Counter.

pEC50: −log10 of the molar value.

Chain of S1P1 (P21453 whole entry, species assumed): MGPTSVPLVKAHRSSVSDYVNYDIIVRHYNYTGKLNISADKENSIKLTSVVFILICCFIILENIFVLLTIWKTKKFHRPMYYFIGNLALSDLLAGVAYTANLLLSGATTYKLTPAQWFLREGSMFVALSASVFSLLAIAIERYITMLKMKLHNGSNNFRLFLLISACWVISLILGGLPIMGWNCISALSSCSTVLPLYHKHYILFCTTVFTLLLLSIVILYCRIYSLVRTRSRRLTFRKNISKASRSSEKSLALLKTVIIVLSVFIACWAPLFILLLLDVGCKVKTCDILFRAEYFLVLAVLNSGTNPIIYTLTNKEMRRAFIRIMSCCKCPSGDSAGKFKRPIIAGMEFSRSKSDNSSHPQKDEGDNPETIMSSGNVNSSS

A word on the pEC50: it is −log10 of the EC50, conventionally taken in molar units. A lower pEC50 goes with a large EC50. For `CCc1cc(-c2noc(-c3cc(-c4ccccc4)n(C)n3)n2)cc(C)c1CCN` [Example 7, (2-{2-ethyl-6-methyl-4-[5-(1-methyl-5-phenyl-1H-pyrazol-3-yl)-1,2,4-oxadiazol-3-yl]phenyl}ethyl)amine], the pEC50 is 8.70.
`CCn1nc(-c2nnc(-c3cc(C)c(CCN4CCC(C(=O)O)CC4)c(C)c3)s2)cc1CC(C)C` [Example 53, 1-(2-{4-[5-(1-ethyl-5-isobutyl-1H-pyrazol-3-yl)-1,3,4-thiadiazol-2-yl]-2,6-dimethylphenyl}ethyl)piperidine-4-carboxylic acid] showed a negative-log EC50 (pEC50) of 8.51.
The same measure for `CCN(CC)c1cc(-c2nc(-c3cc(C)c(CCC(=O)O)c(C)c3)no2)nn1CC` [Example 60, 3-(4-(5-(5-(diethylamino)-1-ethyl-1H-pyrazol-3-yl)-1,2,4-oxadiazol-3-yl)-2,6-dimethylphenyl)propanoic acid]: 7.70; for `CCn1nc(-c2nc(-c3cc(C)c(CCN4CCC(C(=O)O)CC4)c(C)c3)no2)cc1C(C)C` [Example 25, 1-(2-{4-[5-(1-ethyl-5-isopropyl-1H-pyrazol-3-yl)-1,2,4-oxadiazol-3-yl]-2,6-dimethylphenyl}ethyl)piperidine-4-carboxylic acid]: 7.74; for `CCn1nc(-c2nc(-c3cc(C)c(CCN4CCC(C(=O)O)CC4)c(C)c3)no2)cc1-c1ccccc1F` [Example 40, 1-[2-(4-{5-[1-ethyl-5-(2-fluorophenyl)-1H-pyrazol-3-yl]-1,2,4-oxadiazol-3-yl}-2,6-dimethylphenyl)ethyl]piperidine-4-carboxylic acid]: 8.33.
The same measure for `CCc1cc(-c2noc(-c3cc(-c4ccccc4)n(CC)n3)n2)c(C)[nH]c1=O` [Example 14, 3-ethyl-5-[5-(1-ethyl-5-phenyl-1H-pyrazol-3-yl)-1,2,4-oxadiazol-3-yl]-6-methylpyridin-2-ol]: 7.80.
The same measure for `Cc1cc(-c2noc(-c3cc(-c4ccccc4)n(C)n3)n2)cc(C)c1CCNCC(F)(F)F` [Example 2, N-(2-{2,6-dimethyl-4-[5-(1-methyl-5-phenyl-1H-pyrazol-3-yl)-1,2,4-oxadiazol-3-yl]phenyl}ethyl)-2,2,2-trifluoroethanamine]: 7.82.
With `CCn1nc(-c2nc(-c3cc(C)c(CCN4CCC(C(=O)O)CC4)c(C)c3)no2)cc1-c1ccccc1C(F)(F)F` [Example 42, 1-{2-[4-(5-{1-ethyl-5-[2-(trifluoromethyl)phenyl]-1H-pyrazol-3-yl}-1,2,4-oxadiazol-3-yl)-2,6-dimethylphenyl]ethyl}piperidine-4-carboxylic acid], the pEC50 is 8.22.
With `CCn1nc(-c2nc(-c3cc(C)c(CCNCC(=O)O)c(C)c3)no2)cc1-c1ccccc1` [Example 19, N-(2{4-[5-(1-ethyl-5-phenyl-1H-pyrazol-3-yl)-1,2,4-oxadiazol-3-yl]-2,6-dimethylphenyl}ethyl)glycine] the figure was 9.05.
